Assay results as given in US20190203240A1, “METHODS FOR THE PRODUCTION OF RHAMNOSYLATED FLAVONOIDS” (Universitaet Hamburg, priority 2016, published 2019).
Values joined by “and” are separate entries in the source; they are usually repeats but may differ in a detail not shown here. Equal entries are not always repeated.

Columns and labels:
TNF-α = assay: Anti-inflammatory potential: secreted TNF-α in stimulated NHEK (ELISA); format: cell-based, human; conditions: poly(I:C) stimulation, 100 μM
Method: (§1) NHEK were pre-incubated for 24 h with the test compounds. The medium was replaced with the NHEK culture medium containing the inflammatory inducers (PMA or Poly I:C) and incubated for another 24 hours. Positive and negative controls ran in parallel. At the endpoint the culture supernatants were quantified of secreted IL-8, PGE2 and TNF-α, by means of ELISA.

[1] = test system: matrix metallopeptidase 1 (MMP-1); assay: MMP-1 release in UVA-irradiated NHDF (ELISA); format: cell-based, human
Method: (§2) Tests were performed with normal human dermal fibroblast cultures at the 8th passage. Cells were grown in DMEM supplemented with glutamine at 2 mM, penicillin at 50 U/mL and streptomycin (50 μg/mL) and 10% of fetal calf serum (FCS) at 37° C. in a 5% CO2 atmosphere.
Human fibroblasts were cultured for 24 hours before the cells were pre-incubated with the test or reference compounds (dexamethasone) for another 24 hours. The medium was replaced by the irradiation medium (EBSS, CaCl2) 0.264 g/L, MgClSO4 0.2 g/L) containing the test compounds) and cells were irradiated with UVA (15 J/cm^2). The irradiation medium was replaced by culture medium including again the test compounds incubated for 48 hours. After incubation the quantity of matrix metallopeptidase 1 (MMP-1) in the culture supernatant was measured using an ELISA kit.

NF-κB = NF-κB activity in NIH3T3-KBF-Luc cells stimulated with TNFα (luciferase); format: cell-based; conditions: +30 ng/ml TNFα
Method: NIH3T3-KBF-Luc cells were stably transfected with the KBF-Luc plasmid (Sancho (2003) Mol Pharmacol 63:429-438), which contains three copies of NF-κB binding site (from major histocompatibility complex promoter), fused to a minimal simian virus 40 promoter driving the luciferase gene. Cells (1×10^4 for NIH3T3-KBF-Luc) were seeded the day before the assay on 96-well plate. Then the cells were treated with the test substances for 15 min and then stimulated with 30 ng/ml of TNFα. After 6 h, the cells were washed twice with PBS and lysed in 50 μl lysis buffer containing 25 mM Tris-phosphate (pH 7.8), 8 mM MgCl2, 1 mM DTT, 1% Triton X-100, and 7% glycerol during 15 min at RT in a horizontal shaker. Luciferase activity was measured using a GloMax 96 microplate luminometer (Promega) following the instructions of the luciferase assay kit (Promega, Madison, Wis., USA). […] The experiments for each concentration of the test items were done in triplicate wells.

IL-8 = assay: Anti-inflammatory potential: secreted IL-8 in stimulated NHEK (ELISA); format: cell-based, human; conditions: 100 μM; for Cytokine [pg/mL] IL-8: single values
Method: as §1

[2] = test system: lipid peroxides (C11-fluor) in NHEK cells; assay: Protection against UV-induced lipid peroxide in NHEK (C11-fluor probe, flow cytometry); format: cell-based, human
Method: Pre-incubated NHEK were incubated with the test compound for 24 h. Then the specific fluorescence probe for the measurement of hydrogen peroxide (DHR) or lipid peroxides (C11-fluor) was added and incubated for 45 min. Irradiation occurred with in H2O2 determination UVB at 180 mJ/cm^2 (+UVA at 2839 mJ/cm^2) or UVB at 240 mJ/cm^2 (+UVA at 3538 mJ/cm^2) in lipid peroxide, respectively, using a SOL500 Sun Simulator lamp. After irradiation the cells were post-incubated for 30 min before flow-cytometry analysis.

STAT3 = STAT3 activity in HeLa-STAT3-luc cells stimulated with IFN-γ (luciferase); format: cell-based; conditions: +IFNγ 25 U/ml
Method: HeLa-STAT3-luc cells were stably transfected with the plasmid 4×M67 pTATA TK-Luc. Cells (20×10^3 cells/ml) were seeded 96-well plate the day before the assay. Then the cells were treated with the test substances for […] and then stimulated with IFN-γ 25 IU/ml. After 6 h, the cells were washed twice with PBS and lysed in […] lysis buffer containing 25 mM Tris-phosphate (pH 7.8), 8 mM MgCl2, 1 mM DTT, 1% Triton X-100, and 7% glycerol during […] at RT in a horizontal shaker. Luciferase activity was measured using GloMax 96 microplate luminometer (Promega) following the instructions of the luciferase assay kit (Promega, Madison, Wis., USA). […] The experiments for each concentration of the test items were done in triplicate wells.

VEGF = assay: Stimulation of VEGF release in NHDF (ELISA); format: cell-based, human; conditions: 72 hours, 100 μM
Method: as §2
(§3) Fibroblasts were cultured for 24 hours before the cells were incubated with the test compounds for further 72 hours. After the incubation the culture supernatants were collected in order to measure the released quantities of procollagen I, VEGF, and fibronectin by means of ELISA. Reference test compounds were vitamin C (procollagen I), PMA (VEGF), and TGF-β (fibronectin).

procollagen I = assay: Stimulation of procollagen I synthesis in NHDF (ELISA); format: cell-based, human; conditions: 72 hours, 100 μM
Method: as §2, §3

[3] = NHDF irradiated 15 J/cm^2 UVA, 100 μM
[4] = 240 mJ/cm^2 UVB (3538 mJ/cm^2 UVA), 100 μM
[5] = 240 mJ/cm^2 UVB (3538 mJ/cm^2 UVA), 100 μM, single values

Structure (SMILES): C[C@@H]1O[C@@H](Oc2cc(O)cc3c2C(=O)CC(c2ccc(O)cc2)O3)[C@H](O)[C@H](O)[C@H]1O (mixture of isomers) [NR1, Naringenin-5-O-α-L-rhamnoside]
- Cytokine [pg/mL] TNFα Mean (TNF-α): 516 pg/mL
- TNFα % stim. control (TNF-α): 92%
- Cytokine [pg/mL] TNFα (TNF-α; single values): 516 pg/mL
- MMP-1 % Irradiated control [1, 3]: 338%
- MMP-1 % Protection [1, 3]: −372%
- MMP-1 (ng/ml), single replicates [1, 3]: 211.7 ng/mL and 268.8 ng/mL
- Mean MMP-1 [1, 3]: 240.3 ng/mL
- upregulation of MMP-1 biosynthesis ([1]; NHDF, UV-irradiated conditions): ~4 fold
- % Activation (NF-κB; TNFα = 100%) (NF-κB; 10 μM): 114.0%
- RLU 1 (NF-κB; 10 μM): 134540 RLU
- RLU 2 (NF-κB; 10 μM): 126580 RLU
- RLU 3 (NF-κB; 10 μM): 130240 RLU
- RLU MEAN (NF-κB; 10 μM): 130453 RLU
- RLU specific (NF-κB; 10 μM): 93190 RLU
- % Activation (NF-κB; TNFα = 100%) (NF-κB; 25 μM): 136.5%
- RLU 1 (NF-κB; 25 μM): 151080 RLU
- RLU 2 (NF-κB; 25 μM): 151840 RLU
- RLU 3 (NF-κB; 25 μM): 143870 RLU
- RLU MEAN (NF-κB; 25 μM): 148930 RLU
- RLU specific (NF-κB; 25 μM): 111667 RLU
- Cytokine [pg/mL] IL-8 Mean (IL-8; PMA stimulation): 2564 pg/mL
- IL-8 % stim. control (IL-8; PMA stimulation): 88%
- Cytokine [pg/mL] IL-8 (IL-8; PMA stimulation): 2572 pg/mL and 2555 pg/mL
- Cytokine [pg/mL] IL-8 Mean (IL-8; poly(I:C) stimulation): 3154 pg/mL
- IL-8 % stim. control (IL-8; poly(I:C) stimulation): 86%
- Cytokine [pg/mL] IL-8 (IL-8; poly(I:C) stimulation): 3055 pg/mL and 3253 pg/mL
- C11-fluor (AU) Mean (1/GMFI) [2, 4]: 4.3E−04 AU
- lipid peroxide % Irradiated control [2, 4]: 93%
- lipid peroxide Protection % [2, 4]: 9%
- C11-fluor (AU) 1/GMFI [2, 5]: 4.1E−04 AU and 4.4E−04 AU
- C11-fluor (AU) GMFI [2, 5]: 2414 AU and 2255 AU
- anti-oxidative function on lipid peroxides ([2]; UV irradiation): anti-oxidative function
- % Activation (STAT3; IFNγ = 100%) (STAT3; 25 μM): 58.47%
- RLU 1 (STAT3; 25 μM): 10925 RLU
- RLU 2 (STAT3; 25 μM): 8301 RLU
- RLU 3 (STAT3; 25 μM): 8752 RLU
- RLU MEAN (STAT3; 25 μM): 9326 RLU
- RLU specific (STAT3; 25 μM): 7319 RLU
- % Activation (STAT3; IFNγ = 100%) (STAT3; 50 μM): 69.97%
- RLU 1 (STAT3; 50 μM): 18272 RLU
- RLU 2 (STAT3; 50 μM): 6426 RLU
- RLU 3 (STAT3; 50 μM): 7599 RLU
- RLU MEAN (STAT3; 50 μM): 10766 RLU
- RLU specific (STAT3; 50 μM): 8758 RLU
- Mean VEGF (VEGF): 92 pg/mL
- VEGF % Control (VEGF): 128%
- VEGF (VEGF; single values): 90 pg/mL and 94 pg/mL
- Procollagen I % Control (procollagen I): 66%
- Procollagen I % Stimulation (procollagen I): −34%
- Procollagen I Mean (procollagen I): 1097 ng/mL
- Procollagen I (procollagen I; single values): 1334 ng/mL and 860 ng/mL
